Holding throughout (format): in vivo, rat
Assay [1] concerns colonic inflammatory effect of TNBS. The assay is described as follows: Colonic inflammatory parameters after TNBS in rats. As to conditions: gabapentin 100-500 mg/kg sc, CI-1008 30-200 mg/kg sc; Day 7 after TNBS. Here is the method: (§1) Pain threshold (pressure of distension inducing the first abdominal contraction) after distal colonic distension was determined at Day 7 in two groups of awake rats: control animals and TNBS-treated animals. […] Inflammatory parameters (colon weight, area of hyperemia and necrosis and colonic myeloperoxidase content) were measured in the proximal colon at Day 7 after TNBS treatment.
Gabapentin (100, 300, and 500 mg/kg sc) and CI-1008 (30, 60, 100, and 200 mg/kg sc) were administered 30 minutes before colonic distension and measurement of the inflammatory parameters.

Assay [2] deals with rectal distension-induced abdominal contractions. The assay can be described thus: Abdominal response induced by rectal distension in rats (basal). As to the method: Male Wistar rats weighing 250 to 350 g were surgically prepared for electromyography, according to a standard technique. Rats were anesthetized by i.p. injection of acepromazine and ketamine (Imalgene 1000, Rhöne-Mérieux, Lyon, France) at doses of 0.6 and 120 mg/kg, respectively. […] Electrodes were exteriorized on the back of the neck and protected by a glass tube attached to the skin. Animals were individually housed in polypropylene cages and kept in a temperature-controlled room (21° C.). They were allowed free access to water and food (UAR pellets, Epinay, France).
Electromyographic recording began 5 days after surgery. The electrical activity of abdominal striated muscles was recorded with an electroencephalograph machine (Mini VIII, Alvar, Paris, France) using a short-time constant (0.03 sec) to remove low-frequency signals (<3 Hz) and a paper speed of 3.6 cm/minute.
Rats were placed in plastic tunnels (6 cm diameter; 25 cm length) where they could not move, escape or turn around, in order to prevent damage to the balloon. They are accustomized to this procedure for 3 or 4 days before rectal distension (RD) in order to minimize stress reaction during experiments. […] The balloon used for distension was an arterial embolectomy catheter (Fogarty, Edwards Laboratories, Inc., Santa Ana, USA). Rectal distension (RD) was performed by insertion of the balloon (2-mm diameter; 2-cm long) in the rectum, at 1 cm of the anus, the catheter being fixed at the tail. It was inflated progressively by steps of 0.4 mL, from 0 to 1.6 mL, each step of inflation lasting 5 minutes. To detect possible leakage, the volume of water introduced in the balloon was checked by complete removal with a syringe at the end of the distension period. […]
(§2) Statistical analysis of the number of abdominal contractions occurring during each 5-minute period during RD was performed by one-way ANOVA followed by Student's paired t-test. Values were expressed as the mean±SEM, and differences were considered significant for p<0.05.

Assay [3] concerns lipopolysaccharide-induced delayed rectal allodynia. The assay can be described thus: LPS-colonic hypersensitivity assay (LPS-induced delayed rectal allodynia). Conditions: 30 mg/kg 30 minutes prior to rectal distension; 12 hours after LPS 1 mg/kg IP; volume 0.4 mL; LPS alone 9.7±1.0, before LPS 3.7±1.0.
Source text: The GABA analogs also have been evaluated for their ability to control and treat gastrointestinal disorders characterized as IBD and IBS. The assay utilized to evaluate the GABA analogs measures the effects of compound on lipopolysaccharide-induced delayed rectal allodynia in rats. Intraperitoneal (IP) injections of the endotoxin lipopolysaccharide (LPS) are known to induce long-lasting hyperalgesia in somatic pain models. The following assay LPS-colonic hypersensitivity assay was designed to evaluate the effect of IP injections of LPS on pain visceral threshold in an experimental model of rectal distension.
Male Wistar rats weighing 250 to 350 g were surgically prepared for electromyography, according to a standard technique. […]
Electromyographic recording began 5 days after surgery. The electrical activity of abdominal striated muscles was recorded with an electroencephalograph machine (Mini VIII, Alvar, Paris, France) using a short-time constant (0.03 sec) to remove low-frequency signals (<3 Hz) and a paper speed of 3.6 cm/minute. […]
as §2

In another assay the test system is colonic pain threshold. The assay can be described thus: Colonic pain threshold in normal rats (colonic distension). As to conditions: control animals. Here is the method:
(§3) Male Sprague-Dawley rats weighing 340 to 400 g were used in the study. The animals were housed three per cage in a regulated environment (20±1° C., 50±5% humidity, with light 8:00 AM to 8:00 PM). Under anethesia (ketamine 80 mg/kg i.p.; acepromazin 12 mg/kg i.p.), TNBS (50 mg/kg), or saline (1.5 mL/kg) was injected into the proximal colon (1 cm from the cecum). After the surgery, animals were individually housed in the regulated environment.
(§4) A balloon catheter (5-6 cm length) was inserted through the anus into the colon and kept in position (tip of balloon 5 cm from the anus) by taping the catheter to the base of the tail. The balloon was progressively inflated by step of 5 mm Hg, from 0 to 75 mm Hg, each step of inflation lasting 30 seconds. Each cycle of colonic distension was controlled by a standard barostat. The threshold corresponds to the pressure which produced the first abdominal contraction, at which time the cycle of distension was discontinued. To determine the colonic threshold, four cycles of distension were performed on the same animal.

The subject of assay [4] is intracolonic formalin-induced pain. The assay can be described thus: Formalin-induced inflammatory colonic pain in rats. Conditions: gabapentin 100, 300, 500 mg/kg sc; CI-1008 100, 200 mg/kg sc. Here is the method:
Administration of formalin into the wall of the rat colon causes acute inflammation and visceral pain. The aim of this study was to evaluate the antinociceptive activity of gabapentin and CI-1008 in visceral pain induced by colonic intrapariental injection of formalin.
Adult female Sprague-Dawley rats weighing 240 to 260 g were used in the study. The animals were housed three per cage in a regulated environment (20±1° C., 50±5% humidity, with light 8:00 AM to 8:00 PM) prior to use in the test.
Each test animal was placed in a transparent plastic cage (27×43×28 cm) with a layer of wood shavings on the floor. Drinking water was available. […] The injection site and the zone of diffusion of Evans Blue were recorded by image analysis software. […]
As listed in increasing order of pain intensity, these behaviors were: (i) abdominal licking and nibbling (L), (ii) body stretching, i.e., backward extension of the hind limbs (B), (iii) contraction of the flanks, sometimes evolving to a stretching attitude (C), and (iv) whole body contraction, the rat standing with its back curved, occasionally further graded according to the duration of the given episode: W1 for less than 30 seconds, W2 between 30 seconds and 1 minute, and W3 for more than 1 minute. Behaviors were recorded for each animal throughout the 2-hour test on individual charts. […]

Assay [5] deals with TNBS-induced colonic allodynia. The assay is described as follows: TNBS-induced chronic colonic allodynia in rats, colonic distension threshold. Conditions: for Colonic Threshold: TNBS rats. Here is the method: GABA analogs were evaluated in rats suffering from chronic visceral allodynia induced by trinitrobenzene sulfonic acid (TNBS). […] In humans, digestive disorders are often associated with visceral pain. In these pathologies, the visceral pain threshold is decreased, indicating a visceral hypersensitivity. Consequently, the following study was designed to evaluate the effect of injection of TNBS into the colon on visceral pain threshold in an experimental model of colonic distension.
as §3, §4
In a third series, a group of eight rats treated with TNBS received a subcutaneous (sc) injection of gabapentin or CI-1008 30 minutes prior to initiation of the colonic distension cycle.
All test compounds were dissolved in saline except TNBS. TNBS was dissolved in EtOH 30% (w/v). Subcutaneous injection of vehicle was given in a volume of […].
Statistical significance between each group was determined using a one-way ANOVA followed by Student's unpaired t-test. Differences were considered statistically significant at p<0.05.
as §1

The test system of assay [6] is cyclooxygenase product prostaglandin E2 (PGE2). The assay is described as follows: PGE2 content of gastric mucosa biopsies (ELISA) after indomethacin (Example 3). As to conditions: any dose tested (1-200 mg/kg oral). Here is the method: Gabapentin or pregabalin (CI-1008) were dissolved in water and administered orally at the following doses: 1, 10, 100, and 200 mg/kg in a volume of 1 mL. Control animals were dosed with an equal volume of vehicle (1 mL of water). Sixty minutes later, all the animals received 1 mL of a solution of indomethacin dissolved in 5% aqueous NaHCO3 (80 mg/kg). Control animals received 1 mL of 5% aqueous NaHCO3 orally. Experimental groups were as follows:
Gastric damage caused by indomethacin correlates with inhibition of the cyclooxygenase product prostaglandin E2 (PGE2). Animals were sacrificed by decapitation 4 hours post-indomethacin administration. The stomach was removed and opened along the greater curvature and its image digitized and stored on an optical disk using a 486-based PC computer equipped with CUE3 system imaging analysis software (Olympus Corp., Marietta, Ga., USA). Two 6-mm biopsies were taken from a constant region of the gastric mucosa located in each side of the glandular portion of the stomach, and their PGE2 content was measured using a commercially available ELISA kit (Assay Designs Inc., Ann Arbor, Mich., USA). The presence of gastric damage was determined using the retrieved electronic image, and the extent of damage was measured using the CUE3 imaging software. Data are expressed as a percent of gastric area damaged and the PGE2 content (pg/mL).
For orientation: An ELISA detects its analyte on a solid surface through an enzyme-linked reagent.

With `CC(C)C[C@H](CN)CC(=O)O` [CI-1008, (S)-3-(aminomethyl)-5-methylhexanoic acid], the “colonic inflammatory effect of TNBS (colon weight, hyperemia, necrosis, myeloperoxidase)” value in assay [1] is “neither gabapentin nor CI-1008 inhibited the colonic inflammatory effect of TNBS”. In addition, the “number of cramps on rectal distension” value in assay [2] (10 mg/kg injected 120 minutes before rectal distension, all distension volumes) is “had a similar effect at all distension volumes”; in assay [2] (30 mg/kg injected 120 minutes before rectal distension, all distension volumes), “had a similar effect at all distension volumes”; in assay [2] (30 mg/kg, distension volumes of 0.4 and 0.8 mL) it was “reduced the number of cramps”. Besides, the “number of abdominal contractions” value in assay [3] stood at 1.8±0.9. The “colonic pain threshold in normal conditions” value with colonic pain threshold (200 mg/kg sc) was “neither gabapentin (500 mg/kg sc) nor CI-1008 (200 mg/kg sc) modified the colonic pain threshold”. In addition, in assay [4], the “pain score induced by intracolonic formalin” value was “significantly and dose-dependently decreased the pain score”. For the same compound, the “Colonic Threshold” value was determined as 21.72 mm Hg in assay [5] (30 mg/kg sc 30 min before distension, TNBS 17.81, Sham 33.44, Control 43.39) and 25.47 mm Hg in assay [5] (60 mg/kg sc, TNBS 17.81, Control 43.39). For the same compound, the “allodynia induced by TNBS” value in assay [5] (100 mg/kg sc) is “completely suppressed”. Further, in assay [5] (gabapentin 100, 300, 500 mg/kg sc, CI-1008 30, 60, 100, 200 mg/kg sc, 30 minutes before colonic distension), the “inhibition of TNBS-induced colonic allodynia / decrease in pain threshold (dose relation)” value is recorded as “dose-related inhibition”. Also, the “modification of indomethacin inhibition of PGE2” value in assay [6] is recorded as “Neither gabapentin nor CI-1008, at any dose tested, were able to significantly modify this effect”.

In the case of `CN1CC[C@]23c4c5ccc(O)c4O[C@H]2[C@@H](O)C=C[C@H]3[C@H]1C5` [Morphine], in the assay on colonic pain threshold (0.3 mg/kg sc), the “colonic pain threshold in normal conditions” value is recorded as “significantly increased the colonic pain threshold”. The “TNBS-induced decrease in pain threshold after colonic distension” value in assay [5] (0.1 mg/kg sc) is “completely suppressed”.

The values above are taken from patent US6426368B2, “Method for preventing and treating alcoholism” (Warner-Lambert Company, priority 1997, dated 2002).
